In one data set the target is T1, CYP2C9 (Homo sapiens, UniProt P11712).
T1 construct: enzyme: pooled human liver microsome 0.2 mg protein/mL; from tissue; host or cells: pooled human liver microsome
As to the kind of experiment: CYP inhibition test, pooled human liver microsome, CYP2C9. The note with it: methyl-hydroxylation of tolbutamide. In kind it is in vitro ADME. An excerpt:
(§1) O-de-ethylation of 7-ethoxyresorufin (CYP1A2), methyl-hydroxylation of tolbutamide (CYP2C9), 4′-hydroxylation of mephenyloin (CYP2C19), O-demethylation of dextromethorphan (CYP2D6), and hydroxylation of terfenadine (CYP3A4), which are typical substrate for metabolic reactions of human main CYP5 molecular species (CYP1A2, 2C9, 2C19, 2D6, and 3A4), were adopted as indexes.
(§2) The reaction conditions are as follows: substrate: 0.5 μmol/L of ethoxyresorufin (CYP1A2), 100 μmol/L of tolbutamide (CYP2C9), […] of S-mephenyloin (CYP2C19), 5 μmol/L of dextromethorphan (CYP2D6), and 1 μmol/L of terfenadine (CYP3A4); reaction time; 15 minutes; reaction temperature: 37° C.; enzyme: pooled human liver microsome 0.2 mg protein/mL; test drug concentration: 1, 5, 10, and 20 μmol/L (4 points).
(§3) In a 96-well plate, as a reaction solution, five kinds of substrates, a human liver microsome, and a test drug were added to 50 mmol/L Hepes buffer solution in the aforementioned ratio. A coenzyme NADPH was added to start a metabolic reaction, which is an index. After reacting at 37° C. for 15 minutes, a solution of methanol/acetonitrile (1/1 (v/v)) was added to quench the reaction. After centrifugation at 3000 rpm for 15 minutes, resorufin (CYP1A2 metabolite) in the supernatant was quantitated with a fluorescence multilabel counter, and hydroxylated tolbutamide (CYP2C9 metabolite), 4′-hydroxylated mephenyloin (CYP2C19 metabolite), […], terfenadine in alcohol form (CYP3A4 metabolite) were quantitated with LC/MS/MS.
(§4) The case wherein only DMSO (a solvent which dissolved a drug) was added to a reaction system was defined as a control (100%). When a test drug solution was added, the remaining activity (%) at each concentration was calculated, and then IC50 was calculated with a concentration and an inhibition ratio by an inverse estimation using a logistic model.
In general terms: Microsomes from liver hold many membrane-bound enzymes, among them those of drug oxidation.

The next data set has as its target PI-3 kinase γ (Homo sapiens, UniProt P48736). The data set can be described thus: PI3Kγ inhibitory activity, PI3-kinase HTRF assay (inhibition ratio). In kind it is biochemical. The note with it: 0.5 h; for inhibition at 50 µM: compound at 50 μM. In a few lines: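 Single-concentration inhibition ratio (50 or 10 μmol/L compound) versus no-compound (100%) and no-enzyme (0%) wells. Reaction: PI-3 kinase γ, PIP2, ATP, MgCl2/DTT, 30 min at RT after 10 min preincubation. Read-out: HTRF 665/620 nm after 18 h detection.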
A general note: TR-FRET usually uses a lanthanide donor and a delayed reading to cut background.

A further data set concerns the target T2, CYP2C19 (Homo sapiens, UniProt P33261).
T2 construct: enzyme: pooled human liver microsome 0.2 mg protein/mL; from tissue; host or cells: pooled human liver microsome
The data set can be described thus: CYP inhibition test, pooled human liver microsome, CYP2C19. In kind it is in vitro ADME. The conditions noted are these: 4′-hydroxylation of mephenyloin.
Source text: as §1, §2, §3, §4

The next data set is described as follows: Solubility test. In kind it is physicochemical. The note with it: kinetic from dmso stock; artificial intestinal juice pH 6.8, 1% DMSO, 25° C. for 16 hours. The protocol:
The solubility of a compound was determined under a condition in which 1% DMSO was added. 10 mmol/L compound solution was prepared using DMSO, and then 6 μL of the compound solution was added to 594 μL of artificial intestinal juice in pH 6.8 (to 250 mL of 0.2 mol/L potassium dihydrogen phosphate reagent solution was added 118 mL of 0.2 mol/L NaOH reagent solution and water to provide a final volume of 1000 mL). After standing at 25° C. for 16 hours, the mixed solution was filtered with suction. The filtrate was diluted twice with methanol/water (1/1), and then a concentration in the filtration was measured with HPLC or LC/MS/MS by the absolute calibration method.

In another data set the target is T3, CYP2D6 (Homo sapiens, UniProt P10635).
T3 construct: enzyme: pooled human liver microsome 0.2 mg protein/mL; from tissue; host or cells: pooled human liver microsome
The data set can be described thus: CYP inhibition test, pooled human liver microsome, CYP2D6. In kind it is in vitro ADME. The conditions noted are these: O-demethylation of dextromethorphan.
Source text: as §1, §2, §3, §4

In another data set the target is T4, CYP3A4 (Homo sapiens, UniProt P08684).
T4 construct: enzyme: pooled human liver microsome 0.2 mg protein/mL; from tissue; host or cells: pooled human liver microsome
The data set can be described thus: CYP inhibition test, pooled human liver microsome, CYP3A4. The note with it: hydroxylation of terfenadine. In kind it is in vitro ADME.
Source text: as §1, §2, §3, §4

Another data set concerns the target T5, CYP1A2 (Homo sapiens, UniProt P05177).
T5 construct: enzyme: pooled human liver microsome 0.2 mg protein/mL; from tissue; host or cells: pooled human liver microsome
T5 sequence (P05177 1-516): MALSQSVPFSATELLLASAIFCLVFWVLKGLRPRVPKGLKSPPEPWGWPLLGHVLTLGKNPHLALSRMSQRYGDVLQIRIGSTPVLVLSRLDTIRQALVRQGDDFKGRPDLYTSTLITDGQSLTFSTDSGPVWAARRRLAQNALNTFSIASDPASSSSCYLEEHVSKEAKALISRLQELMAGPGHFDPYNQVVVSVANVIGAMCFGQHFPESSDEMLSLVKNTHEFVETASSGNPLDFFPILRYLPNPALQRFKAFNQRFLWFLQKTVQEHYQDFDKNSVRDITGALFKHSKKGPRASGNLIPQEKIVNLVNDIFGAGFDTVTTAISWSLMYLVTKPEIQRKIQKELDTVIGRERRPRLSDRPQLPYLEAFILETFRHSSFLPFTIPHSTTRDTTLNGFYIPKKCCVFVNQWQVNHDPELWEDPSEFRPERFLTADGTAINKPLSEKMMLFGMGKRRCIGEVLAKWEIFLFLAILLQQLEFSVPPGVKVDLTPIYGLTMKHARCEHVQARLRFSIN
The data set can be described thus: CYP inhibition test, pooled human liver microsome, CYP1A2. In kind it is in vitro ADME. The note with it: O-de-ethylation of 7-ethoxyresorufin.
Source text: as §1, §2, §3, §4

The nature of a further data set: Metabolic stability test.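 Note: 100% equals the compound amount at 0 min reaction.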 In kind it is in vitro ADME. The conditions noted are these: human liver microsome 0.5 mg protein/mL, 1 mmol/L NADPH, 37° C. The procedure: After a subject compound was reacted for a certain time using a pooled human liver microsome commercially available, a reacted sample and an unreacted sample are compared to calculate a survival ratio, and then the degree of metabolism in the liver was evaluated.
0.2 mL of a buffer solution (50 mmol/L of Tris-HCl in pH 7.4, 150 mmol/L of potassium chloride, and 10 mmol/L of magnesium chloride) containing a human liver microsome of 0.5 mg protein/mL was reacted in the presence of 1 mmol/L NADPH at 37° C. for 0 or 30 minutes (oxidative reaction). After reacting, 50 μL of the reaction solution was added to 100 μL of a solution of methanol/acetonitrile (1/1 (v/v)), mixed, and then centrifuged at 3000 rpm for 15 minutes. The test compound in the supernatant was quantitated with LC/MS/MS. The amount of the compound at a reaction time of 0 minute was defined as 100% and, based on that, the percentage of the test compound remained after reacting for 30 minutes was calculated.

Twelve compounds from patent US20110230472A1, “RING-FUSED AZOLE DERIVATIVE HAVING PI3K-INHIBITING ACTIVITY” (Shionogi & Co., Ltd., priority 2008, published 2011) can be followed below.

The term IC50 denotes the concentration needed to halve the response being measured. The low end stands for greater potency in that assay, the high end for weaker potency in that assay. As usually defined, the inhibition is how much of the control response was suppressed. In general, solubility refers to the dissolved amount per volume that the medium holds. Lower therefore signals a poorly soluble substance.

Chain of PI-3 kinase γ (P48736 whole entry): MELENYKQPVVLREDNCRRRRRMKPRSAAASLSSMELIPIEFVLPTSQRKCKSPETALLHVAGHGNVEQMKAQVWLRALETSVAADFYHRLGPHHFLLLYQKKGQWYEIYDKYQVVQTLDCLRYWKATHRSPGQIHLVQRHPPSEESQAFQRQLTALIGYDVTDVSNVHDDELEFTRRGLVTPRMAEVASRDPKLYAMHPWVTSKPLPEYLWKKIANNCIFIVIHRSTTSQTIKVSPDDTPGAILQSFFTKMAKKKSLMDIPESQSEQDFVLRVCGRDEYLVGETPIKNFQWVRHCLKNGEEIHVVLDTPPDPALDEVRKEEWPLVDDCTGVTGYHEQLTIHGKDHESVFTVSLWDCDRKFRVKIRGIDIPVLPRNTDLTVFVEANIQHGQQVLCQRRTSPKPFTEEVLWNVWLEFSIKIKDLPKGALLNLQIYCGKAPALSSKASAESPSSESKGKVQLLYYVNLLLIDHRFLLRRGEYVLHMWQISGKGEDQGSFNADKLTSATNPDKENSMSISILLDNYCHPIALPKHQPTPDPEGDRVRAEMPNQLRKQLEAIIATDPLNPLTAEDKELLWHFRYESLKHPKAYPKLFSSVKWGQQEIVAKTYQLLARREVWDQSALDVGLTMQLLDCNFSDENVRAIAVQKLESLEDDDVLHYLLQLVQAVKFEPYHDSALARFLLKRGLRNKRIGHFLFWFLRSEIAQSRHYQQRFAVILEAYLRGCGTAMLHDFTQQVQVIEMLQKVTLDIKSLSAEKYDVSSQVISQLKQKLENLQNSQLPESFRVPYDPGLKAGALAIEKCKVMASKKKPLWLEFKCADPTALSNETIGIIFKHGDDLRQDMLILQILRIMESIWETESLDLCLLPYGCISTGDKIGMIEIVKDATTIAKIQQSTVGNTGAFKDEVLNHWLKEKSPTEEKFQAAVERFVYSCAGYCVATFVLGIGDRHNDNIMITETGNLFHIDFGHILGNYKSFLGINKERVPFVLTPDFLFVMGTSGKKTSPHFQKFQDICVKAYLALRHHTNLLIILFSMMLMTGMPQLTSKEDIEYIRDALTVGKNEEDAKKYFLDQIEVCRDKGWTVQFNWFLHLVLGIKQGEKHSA
T2 sequence (P33261 whole entry): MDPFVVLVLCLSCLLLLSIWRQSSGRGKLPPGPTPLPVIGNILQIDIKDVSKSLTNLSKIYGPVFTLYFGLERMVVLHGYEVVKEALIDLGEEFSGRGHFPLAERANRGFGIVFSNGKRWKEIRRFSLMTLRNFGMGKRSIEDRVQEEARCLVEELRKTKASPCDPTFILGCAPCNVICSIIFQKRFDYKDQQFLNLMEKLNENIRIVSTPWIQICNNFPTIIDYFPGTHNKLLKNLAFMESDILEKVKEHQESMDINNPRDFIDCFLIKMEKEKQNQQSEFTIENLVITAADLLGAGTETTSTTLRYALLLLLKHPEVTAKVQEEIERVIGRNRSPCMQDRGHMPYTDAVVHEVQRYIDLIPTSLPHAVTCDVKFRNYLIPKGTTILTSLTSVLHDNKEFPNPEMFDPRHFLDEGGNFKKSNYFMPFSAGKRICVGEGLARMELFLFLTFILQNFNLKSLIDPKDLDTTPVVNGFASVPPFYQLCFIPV
T4 sequence (P08684 whole entry): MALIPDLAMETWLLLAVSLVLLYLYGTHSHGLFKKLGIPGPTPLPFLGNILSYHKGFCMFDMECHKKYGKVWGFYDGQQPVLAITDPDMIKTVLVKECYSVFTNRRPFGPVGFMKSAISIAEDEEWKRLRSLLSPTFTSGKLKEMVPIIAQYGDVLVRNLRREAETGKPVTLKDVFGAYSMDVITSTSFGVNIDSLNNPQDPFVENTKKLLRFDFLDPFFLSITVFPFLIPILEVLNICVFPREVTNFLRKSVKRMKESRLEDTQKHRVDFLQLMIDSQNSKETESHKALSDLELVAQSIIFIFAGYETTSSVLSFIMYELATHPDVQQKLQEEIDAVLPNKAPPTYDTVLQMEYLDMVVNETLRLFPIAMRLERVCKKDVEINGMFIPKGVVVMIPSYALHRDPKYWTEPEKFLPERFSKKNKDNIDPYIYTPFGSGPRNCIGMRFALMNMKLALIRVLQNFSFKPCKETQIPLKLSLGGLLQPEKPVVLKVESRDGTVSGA
T1 sequence (P11712 whole entry): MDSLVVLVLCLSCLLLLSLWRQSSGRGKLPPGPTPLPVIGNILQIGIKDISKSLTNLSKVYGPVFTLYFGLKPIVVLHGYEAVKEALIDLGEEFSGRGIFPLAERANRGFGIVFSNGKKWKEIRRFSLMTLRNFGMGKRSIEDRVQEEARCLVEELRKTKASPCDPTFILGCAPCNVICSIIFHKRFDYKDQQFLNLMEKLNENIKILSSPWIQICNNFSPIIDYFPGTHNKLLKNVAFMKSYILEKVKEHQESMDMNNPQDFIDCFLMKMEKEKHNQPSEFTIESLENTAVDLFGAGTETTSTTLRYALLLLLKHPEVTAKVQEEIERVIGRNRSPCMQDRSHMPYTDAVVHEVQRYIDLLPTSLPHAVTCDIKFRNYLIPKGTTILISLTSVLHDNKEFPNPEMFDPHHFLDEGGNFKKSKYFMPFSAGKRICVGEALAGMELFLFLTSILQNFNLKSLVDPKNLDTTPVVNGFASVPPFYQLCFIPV
T3 sequence (P10635 whole entry): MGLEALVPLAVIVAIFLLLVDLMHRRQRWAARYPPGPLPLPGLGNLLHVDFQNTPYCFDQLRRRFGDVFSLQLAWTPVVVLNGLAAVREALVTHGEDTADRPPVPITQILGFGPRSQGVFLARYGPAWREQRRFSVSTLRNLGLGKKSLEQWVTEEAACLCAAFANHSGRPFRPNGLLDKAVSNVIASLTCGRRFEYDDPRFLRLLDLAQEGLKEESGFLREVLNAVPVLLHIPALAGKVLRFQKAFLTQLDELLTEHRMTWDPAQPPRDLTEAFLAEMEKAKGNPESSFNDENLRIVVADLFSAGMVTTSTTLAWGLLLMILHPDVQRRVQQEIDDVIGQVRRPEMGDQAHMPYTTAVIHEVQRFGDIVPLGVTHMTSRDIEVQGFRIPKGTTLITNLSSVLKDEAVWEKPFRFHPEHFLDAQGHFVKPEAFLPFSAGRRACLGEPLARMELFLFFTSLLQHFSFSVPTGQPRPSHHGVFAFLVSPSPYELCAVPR

Take `COc1cc(N2CCc3nc(NC(=O)NCCC(=O)N4CCC[C@H]4C(=O)O)sc3C2)nc(OC)n1` [Compound I-276]: the IC50 on CYP2C9, at CYP2C19, on CYP2D6, at CYP3A4 and against CYP1A2 was above 20 µM throughout. In addition, the inhibition at 10 µM at PI-3 kinase γ (PI3Kγ, compound at 10 μM) was at least 95%. For the same compound, the solubility at 16 h in “Solubility test” is above 50 µM. Further, the “percentage of the test compound remained after reacting for 30 minutes” value (“percentage of the test compound remained” below) in the data set “Metabolic stability test” was 90.1%.

In the case of `CC(=O)Nc1cc2n(n1)CCN2c1ccc2c(c1)CCCN2.Cl.Cl` [Compound I-319], the inhibition at 10 µM at PI-3 kinase γ (compound at 10 μmol/L) was at least 95%. For the same compound, in the data set “Solubility test”, the solubility at 16 h was above 50 µM.

For the compound `CN(C)C(=O)c1cc(C(=O)Nc2cc3n(n2)CCN3c2ccc3c(c2)CCN(C)C3=O)cs1` [Compound I-432], the IC50 on CYP2C9, against CYP2C19, on CYP2D6, at CYP3A4 and on CYP1A2 was above 20 µM throughout. Also, the inhibition at 10 µM on PI-3 kinase γ (compound at 10 μmol/L) was at least 95%.

Regarding `CNC(=O)Nc1cc2n(n1)CCN2c1cccc(OC)c1` [Compound I-61], the inhibition at 50 µM at PI-3 kinase γ (PI3Kγ) is at least 95%. The compound also gave a solubility at 16 h in the data set “Solubility test” above 50 µM.

Turning to `CN1CCc2cc(N3CCn4nc(NC(=O)c5ccc(C(=O)NCC#N)s5)cc43)ccc2C1=O` [Compound I-409], the IC50 on CYP2C9, on CYP2C19, on CYP2D6, on CYP3A4 and against CYP1A2 was above 20 µM each time. The inhibition at 10 µM at PI-3 kinase γ (compound at 10 μmol/L) is at least 95%. The “percentage of the test compound remained” value in the data set “Metabolic stability test” is listed as 92.2%.

Take `CN1CCc2cc(N3CCn4nc(NC(=O)CC5CCNC5)cc43)ccc2C1=O.Cl.Cl` (stereo not shown) [Compound I-356]: the IC50 at CYP2C9, on CYP2C19, against CYP2D6, against CYP3A4 and on CYP1A2 was above 20 µM throughout. Besides, on PI-3 kinase γ (compound at 10 μmol/L), the inhibition at 10 µM was at least 95%. This compound yielded a solubility at 16 h in “Solubility test” above 50 µM.

On to `CNC(=O)Nc1cc2n(n1)CCN2c1ccc(C(=O)O)s1` [Compound I-217], for which the IC50 against CYP2C9, against CYP2C19, against CYP2D6, at CYP3A4 and on CYP1A2 was above 20 µM in each case. The inhibition at 50 µM on PI-3 kinase γ (PI3Kγ) is at least 95%. This compound also had a solubility at 16 h in the data set “Solubility test” above 50 µM.

With `CC(C)NC(=O)c1ccc(C(=O)Nc2cc3n(n2)CCN3c2ccc3c(c2)CCN(C)C3=O)s1` [Compound I-407], the IC50 on CYP2C9, against CYP2C19, against CYP2D6, against CYP3A4 and against CYP1A2 was above 20 µM in each case. Further, the inhibition at 10 µM at PI-3 kinase γ (compound at 10 μmol/L) is at least 95%. Moreover, the “percentage of the test compound remained” value in “Metabolic stability test” is recorded as 92.9%.

As for `CC(C)NC(=O)c1csc(C(=O)Nc2cc3n(n2)CCN3c2ccc3c(c2)CCN(C)C3=O)c1` [Compound I-402], the IC50 against CYP2C9, at CYP2C19, on CYP2D6, at CYP3A4 and against CYP1A2 was above 20 µM throughout. Besides, at PI-3 kinase γ (compound at 10 μmol/L), the inhibition at 10 µM amounted to 91%.

With `CN(C)C(=O)CCC(=O)Nc1cc2n(n1)CCN2c1cccc(Cl)c1` [Compound I-234], the IC50 on CYP2C9, at CYP2C19, against CYP2D6, against CYP3A4 and at CYP1A2 was above 20 µM in each case. Besides, the inhibition at 50 µM at PI-3 kinase γ (PI3Kγ) was at least 95%. Besides, the “percentage of the test compound remained” value in the data set “Metabolic stability test” worked out at 98.3%.

For the compound `CC(=O)Nc1cc2n(C(=O)c3ccccc3)ccn2n1` [Compound I-6], the inhibition at 50 µM on PI-3 kinase γ (PI3Kγ) was 90%.

With `COc1cc(C(=O)Nc2nc3c(s2)CN(c2cc(OC)nc(OC)n2)CC3)on1` [Compound I-282], the inhibition at 10 µM on PI-3 kinase γ (PI3Kγ, compound at 10 μM) was found to be 86%.
